Experiments:
RAW264.7 [1] = assay: Antiinflammatory activity in mouse RAW264.7 cells assessed as reduction in LPS-induced NO production preincubated for 2 hrs followed by LPS stimulation and measured after 24 hrs by Griess reagent-based assay; type: functional, cell-based; details: dose 5-50 µM, time 26.0 hrs
RAW264.7 [2] = assay: Antiinflammatory activity in mouse RAW264.7 cells assessed as reduction in LPS-induced NO production at 25 to 50 uM preincubated for 2 hrs followed by LPS stimulation and measured after 24 hrs by Griess reagent-based assay relative to control; type: functional; parameters: scale not given: the % may be the effect or the level left; details: dose 25-50 µM, time 26 hrs
RAW264.7 [3] = assay: Antiinflammatory activity in mouse RAW264.7 cells assessed as reduction in LPS-induced NO production at 10 uM preincubated for 2 hrs followed by LPS stimulation and measured after 24 hrs by Griess reagent-based assay relative to control; type: functional; parameters: scale not given: the % may be the effect or the level left; details: time 26 hrs

Q: What does the source list for `COc1cccc2ccc(-c3cc(-c4ccc(O)c5c(OC)cccc45)c4cccc(OC)c4c3O)c(O)c12`?
A: Activity (RAW264.7 [1]): Dose-Dependent Effect; Activity (RAW264.7 [2]): 50%

Q: With `C[C@@H]1C[C@H]2[C@@H]3CCC4=CC(=O)C=C[C@]4(C)[C@@]3(F)[C@@H](O)C[C@]2(C)[C@@]1(O)C(=O)CO` [DEXAMETHASONE] as the compound, how does the Activity (RAW264.7 [3]) read?
A: The Activity was 50%.

Q: `COc1cccc2ccc(-c3ccc(O)c4c(OC)cccc34)c(O)c12` was tested. Which Activity (RAW264.7 [1]) did it give?
A: The Activity was “Dose-Dependent Effect”.

Q: What about the Activity (RAW264.7 [2]) of the same compound?
A: Its Activity is 50%.

Q: What does the source list for `COc1cccc2ccc(-c3ccc4cccc(OC)c4c3O)c(O)c12`?
A: Activity (RAW264.7 [1]): Dose-Dependent Effect; Activity (RAW264.7 [2]): 50%

Reference: ChEMBL document CHEMBL5360674, “Discovery of Naphthol Tetramers from Endolichenic Fungus Daldinia childiae 047219 Based on MS/MS Molecular Networking” (2023)
